Experimental data reported in PubChem BioAssay (NCI).
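Where inhibition never reached the appropriate level, the endpoint shown equals the highest concentration tested. Otherwise, values were interpolated linearly from a five-concentration, 48-hour dose response in 96-well plates. Abbreviation: GI50, concentration required for 50% inhibition of growth. TGI: total growth inhibition.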

Legend:
Assay in all cases: growth of human tumour cells (NCI), 48 h
UACC-62 melanoma = tested on: UACC-62 melanoma
NCI-H23 lung = tested on: NCI-H23 lung
OVCAR-5 ovarian = tested on: OVCAR-5 ovarian
UACC-257 melanoma = tested on: UACC-257 melanoma
HS 578T breast = tested on: HS 578T breast
NCI-H460 lung = tested on: NCI-H460 lung
CAKI-1 renal = tested on: CAKI-1 renal
RPMI-8226 leukemia = tested on: RPMI-8226 leukemia
HCC-2998 colon = tested on: HCC-2998 colon
HCT-116 colon = tested on: HCT-116 colon
OVCAR-4 ovarian = tested on: OVCAR-4 ovarian
MOLT-4 leukemia = tested on: MOLT-4 leukemia
RXF 393 renal = tested on: RXF 393 renal
K-562 leukemia = tested on: K-562 leukemia
UO-31 renal = tested on: UO-31 renal
HCT-15 colon = tested on: HCT-15 colon
SF-539 CNS = tested on: SF-539 CNS
NCI-H226 lung = tested on: NCI-H226 lung
SK-OV-3 ovarian = tested on: SK-OV-3 ovarian
SF-268 CNS = tested on: SF-268 CNS
SNB-19 CNS = tested on: SNB-19 CNS
NCI-H522 lung = tested on: NCI-H522 lung
MALME-3M melanoma = tested on: MALME-3M melanoma
ACHN renal = tested on: ACHN renal
NCI/ADR-RES ovarian = tested on: NCI/ADR-RES ovarian
U251 CNS = tested on: U251 CNS
KM12 colon = tested on: KM12 colon
HOP-62 NSCLC = tested on: HOP-62 NSCLC
786-0 renal = tested on: 786-0 renal
SK-MEL-28 melanoma = tested on: SK-MEL-28 melanoma
COLO 205 colon = tested on: COLO 205 colon
BT-549 breast = tested on: BT-549 breast
SK-MEL-2 melanoma = tested on: SK-MEL-2 melanoma
MDA-MB-231 breast = tested on: MDA-MB-231 breast
SK-MEL-5 melanoma = tested on: SK-MEL-5 melanoma
IGROV1 ovarian = tested on: IGROV1 ovarian
MDA-MB-435 = tested on: MDA-MB-435
HT29 colon = tested on: HT29 colon
HL-60(TB) leukemia = tested on: HL-60(TB) leukemia
A498 renal = tested on: A498 renal
SNB-75 CNS = tested on: SNB-75 CNS
T-47D breast = tested on: T-47D breast
LOX IMVI melanoma = tested on: LOX IMVI melanoma
CCRF-CEM leukemia = tested on: CCRF-CEM leukemia
OVCAR-8 ovarian = tested on: OVCAR-8 ovarian
MCF7 breast = tested on: MCF7 breast
A549 NSCLC = tested on: A549 NSCLC
DU-145 prostate = tested on: DU-145 prostate
M14 melanoma = tested on: M14 melanoma
SR leukemia = tested on: SR leukemia
SF-295 CNS = tested on: SF-295 CNS
OVCAR-3 ovarian = tested on: OVCAR-3 ovarian
PC-3 prostate = tested on: PC-3 prostate
TK-10 renal = tested on: TK-10 renal
SW-620 colon = tested on: SW-620 colon
SN12C renal = tested on: SN12C renal
HOP-92 NSCLC = tested on: HOP-92 NSCLC

Structure (SMILES): Cn1cc(C2=C(Oc3ccccc3)C(=O)NC2=O)c2ccccc21
- GI50 (UACC-62 melanoma): > 25 µM
- TGI (UACC-62 melanoma): > 25 µM
- GI50 (NCI-H23 lung): > 25 µM
- TGI (NCI-H23 lung): > 25 µM
- GI50 (OVCAR-5 ovarian): > 25 µM
- TGI (OVCAR-5 ovarian): > 25 µM
- GI50 (UACC-257 melanoma): > 25 µM
- TGI (UACC-257 melanoma): > 25 µM
- GI50 (HS 578T breast): > 25 µM
- TGI (HS 578T breast): > 25 µM
- GI50 (NCI-H460 lung): > 25 µM
- TGI (NCI-H460 lung): > 25 µM
- GI50 (CAKI-1 renal): > 25 µM
- TGI (CAKI-1 renal): > 25 µM
- GI50 (RPMI-8226 leukemia): > 25 µM
- TGI (RPMI-8226 leukemia): > 25 µM
- GI50 (HCC-2998 colon): > 25 µM
- TGI (HCC-2998 colon): > 25 µM
- GI50 (HCT-116 colon): > 25 µM
- TGI (HCT-116 colon): > 25 µM
- GI50 (OVCAR-4 ovarian): > 25 µM
- TGI (OVCAR-4 ovarian): > 25 µM
- GI50 (MOLT-4 leukemia): > 25 µM
- TGI (MOLT-4 leukemia): > 25 µM
- GI50 (RXF 393 renal): > 25 µM
- TGI (RXF 393 renal): > 25 µM
- GI50 (K-562 leukemia): > 25 µM
- TGI (K-562 leukemia): > 25 µM
- GI50 (UO-31 renal): > 25 µM
- TGI (UO-31 renal): > 25 µM
- GI50 (HCT-15 colon): > 25 µM
- TGI (HCT-15 colon): > 25 µM
- GI50 (SF-539 CNS): > 25 µM
- TGI (SF-539 CNS): > 25 µM
- GI50 (NCI-H226 lung): > 25 µM
- TGI (NCI-H226 lung): > 25 µM
- GI50 (SK-OV-3 ovarian): > 25 µM
- TGI (SK-OV-3 ovarian): > 25 µM
- GI50 (SF-268 CNS): > 25 µM
- TGI (SF-268 CNS): > 25 µM
- GI50 (SNB-19 CNS): > 25 µM
- TGI (SNB-19 CNS): > 25 µM
- GI50 (NCI-H522 lung): > 25 µM
- TGI (NCI-H522 lung): > 25 µM
- GI50 (MALME-3M melanoma): > 25 µM
- TGI (MALME-3M melanoma): > 25 µM
- GI50 (ACHN renal): > 25 µM
- TGI (ACHN renal): > 25 µM
- GI50 (NCI/ADR-RES ovarian): > 25 µM
- TGI (NCI/ADR-RES ovarian): > 25 µM
- GI50 (U251 CNS): > 25 µM
- TGI (U251 CNS): > 25 µM
- GI50 (KM12 colon): > 25 µM
- TGI (KM12 colon): > 25 µM
- GI50 (HOP-62 NSCLC): > 17.8 µM
- TGI (HOP-62 NSCLC): > 25 µM
- GI50 (786-0 renal): > 25 µM
- TGI (786-0 renal): > 25 µM
- GI50 (SK-MEL-28 melanoma): > 25 µM
- TGI (SK-MEL-28 melanoma): > 25 µM
- GI50 (COLO 205 colon): > 25 µM
- TGI (COLO 205 colon): > 25 µM
- GI50 (BT-549 breast): > 25 µM
- TGI (BT-549 breast): > 25 µM
- GI50 (SK-MEL-2 melanoma): > 25 µM
- TGI (SK-MEL-2 melanoma): > 25 µM
- GI50 (MDA-MB-231 breast): > 19.3 µM
- TGI (MDA-MB-231 breast): > 25 µM
- GI50 (SK-MEL-5 melanoma): > 25 µM
- TGI (SK-MEL-5 melanoma): > 25 µM
- GI50 (IGROV1 ovarian): > 25 µM
- TGI (IGROV1 ovarian): > 25 µM
- GI50 (MDA-MB-435): > 25 µM
- TGI (MDA-MB-435): > 25 µM
- GI50 (HT29 colon): > 25 µM
- TGI (HT29 colon): > 25 µM
- GI50 (HL-60(TB) leukemia): > 25 µM
- TGI (HL-60(TB) leukemia): > 25 µM
- GI50 (A498 renal): > 25 µM
- TGI (A498 renal): > 25 µM
- GI50 (SNB-75 CNS): > 12.4 µM
- TGI (SNB-75 CNS): > 25 µM
- GI50 (T-47D breast): > 25 µM
- TGI (T-47D breast): > 25 µM
- GI50 (LOX IMVI melanoma): > 25 µM
- TGI (LOX IMVI melanoma): > 25 µM
- GI50 (CCRF-CEM leukemia): > 25 µM
- TGI (CCRF-CEM leukemia): > 25 µM
- GI50 (OVCAR-8 ovarian): > 25 µM
- TGI (OVCAR-8 ovarian): > 25 µM
- GI50 (MCF7 breast): > 25 µM
- TGI (MCF7 breast): > 25 µM
- GI50 (A549 NSCLC): > 25 µM
- TGI (A549 NSCLC): > 25 µM
- GI50 (DU-145 prostate): > 25 µM
- TGI (DU-145 prostate): > 25 µM
- GI50 (M14 melanoma): > 25 µM
- TGI (M14 melanoma): > 25 µM
- GI50 (SR leukemia): > 25 µM
- TGI (SR leukemia): > 25 µM
- GI50 (SF-295 CNS): > 25 µM
- TGI (SF-295 CNS): > 25 µM
- GI50 (OVCAR-3 ovarian): > 25 µM
- TGI (OVCAR-3 ovarian): > 25 µM
- GI50 (PC-3 prostate): > 25 µM
- TGI (PC-3 prostate): > 25 µM
- GI50 (TK-10 renal): > 25 µM
- TGI (TK-10 renal): > 25 µM
- GI50 (SW-620 colon): > 25 µM
- TGI (SW-620 colon): > 25 µM
- GI50 (SN12C renal): > 25 µM
- TGI (SN12C renal): > 25 µM
- GI50 (HOP-92 NSCLC): 6.32 µM
- TGI (HOP-92 NSCLC): > 25 µM
